Experimental data taken from ChEMBL document CHEMBL1133922, “Evolution of anti-HIV drug candidates. Part 2: Diaryltriazine (DATA) analogues” (Bioorg Med Chem Lett, 2001).
pIC50: −log10 of the molar value.

Assays:
[1] = test system: Human immunodeficiency virus 1; assay: Inhibitory activity against 103N strain of HIV-I in MT-4 cell was determined; type: functional, organism-based; conditions: Human immunodeficiency virus 1, MT4
[2] = test system: Human immunodeficiency virus 1; assay: Inhibitory activity against 181C strain of HIV-I in MT-4 cell was determined; type: functional, organism-based; conditions: Human immunodeficiency virus 1, MT4
[3] = test system: Human immunodeficiency virus 1; assay: Inhibitory activity against LAI strain of HIV-I in MT-4 cell was determined; type: functional, organism-based; conditions: Human immunodeficiency virus 1, MT4
[4] = test system: Human immunodeficiency virus 1; assay: Inhibitory activity against 100I strain of HIV-I in MT-4 cell was determined; type: functional, organism-based; conditions: Human immunodeficiency virus 1, MT4
[5] = test system: Human immunodeficiency virus 1; assay: Inhibitory activity against 188L strain of HIV-1 in MT-4 cell was determined; type: functional, organism-based; conditions: Human immunodeficiency virus 1, MT4
[6] = test system: MT4; assay: Inhibitory activity against 100I strain and 103N strain of HIV-I in MT-4 cell was determined; type: functional, cell-based; conditions: Homo sapiens
[7] = test system: MT4; assay: Inhibitory activity against 103N strain and 181C strain of HIV-I in MT-4 cell was determined; type: functional, cell-based; conditions: Homo sapiens
[8] = test system: MT4; assay: Inhibitory activity against LAI strain of HIV-I in MT-4 cell was determined; Not determined; type: functional, cell-based; conditions: Homo sapiens

pIC50 [1] | pIC50 [2] | pIC50 [3] | pIC50 [4] | pIC50 [5] | SMILES | pIC50 [6] | pIC50 [7] | pIC50 [8]
6.28 | 5.81 | 7.51 |  |  | COc1cccc(OC)c1Oc1nc(N)nc(Nc2ccc(C#N)cc2)n1 |  |  | 
< 4.00 | < 4.00 | 5.11 |  |  | Cc1cc(N)cc(C)c1Oc1nc(N)nc(Nc2ccc(C#N)cc2)n1 |  |  | 
8.22 | 7.40 | 8.89 | 7.80 | 6.40 | Cc1cc(Br)c(Oc2ncnc(Nc3ccc(C#N)cc3)n2)c(Br)c1 |  |  | 
7.70 | 6.30 | 8.40 | 6.00 | 6.60 | Cc1cc(C#N)cc(C)c1Oc1ncnc(Nc2ccc(C#N)cc2)n1 | 5.40 | 6.40 | 
5.12 | 4.36 | 6.42 | 4.45 |  | CC(C)NC(=O)Nc1nc(Cc2c(Cl)cccc2Cl)nc(Nc2ccc(C#N)cc2)n1 |  |  | 
8.00 | 7.17 | 7.52 | 6.69 | 7.12 | Cc1cc(I)cc(C)c1Oc1nc(N)nc(Nc2ccc(C#N)cc2)n1 |  |  | 
 |  | 6.71 |  |  | N#Cc1ccc(Nc2nc(Cc3c(Cl)cccc3Cl)nc(N3CCOCC3)n2)cc1 |  |  | 
7.19 | 6.59 | 8.14 | 6.15 | 5.99 | N#Cc1ccc(Nc2nc(N)nc(Oc3c(Cl)cc(F)cc3Cl)n2)cc1 |  |  | 
8.10 | 7.30 | 9.00 | 6.60 | 7.30 | Cc1cc(C#N)cc(C)c1Nc1ncnc(Nc2ccc(C#N)cc2)n1 | 5.60 | 6.90 | 
 |  |  |  |  | CCCONc1nc(Cc2c(Cl)cccc2Cl)nc(Nc2ccc(C#N)cc2)n1 |  |  | 4.00
7.68 | 6.42 | 8.30 | 5.90 | 6.53 | CN(C)CCNc1nc(Cc2c(Cl)cccc2Cl)nc(Nc2ccc(C#N)cc2)n1 |  |  | 
8.22 | 7.80 | 9.22 | 7.10 | 7.20 | Cc1cc(Br)cc(C)c1Nc1ncnc(Nc2ccc(C#N)cc2)n1 | 5.50 | 6.90 | 
7.06 | 5.44 | 7.29 | 6.67 | 5.05 | N#Cc1ccc(Nc2nc(N)nc(Oc3c(F)cc(F)cc3F)n2)cc1 |  |  | 
7.07 | 5.92 | 8.34 | 5.17 | 6.44 | Cc1cc(C)c(C)c(Cc2nc(N)nc(Nc3ccc(C#N)cc3)n2)c1C |  |  | 
4.81 | 4.16 | 5.81 |  |  | C[S+]([O-])c1nc(Cc2c(Cl)cccc2Cl)nc(Nc2ccc(C#N)cc2)n1 (configuration not stated) |  |  | 
7.43 | 5.86 | 8.26 | 5.97 | 6.50 | CN(C)CCOc1nc(Cc2c(Cl)cccc2Cl)nc(Nc2ccc(C#N)cc2)n1 |  |  | 
5.07 | < 4.00 | 6.55 | 5.09 |  | N#Cc1ccc(Nc2nc(N)nc(Cc3ccccc3)n2)cc1 |  |  | 
6.26 | 5.88 | 7.92 | 5.79 | 5.76 | CCOC(=O)Nc1nc(Cc2c(Cl)cccc2Cl)nc(Nc2ccc(C#N)cc2)n1 |  |  | 
7.09 | 7.20 | 8.21 | 5.86 | 6.09 | CONc1nc(Cc2c(Cl)cccc2Cl)nc(Nc2ccc(C#N)cc2)n1 |  |  | 
5.33 | 4.87 | 6.78 | 4.49 |  | CN(C)c1nc(Cc2c(Cl)cccc2Cl)nc(Nc2ccc(C#N)cc2)n1 |  |  | 
8.52 | 7.89 | 8.70 | 7.49 | 7.70 | Cc1cc(C)c(Sc2ncnc(Nc3ccc(C#N)cc3)n2)c(C)c1 | < 5.00 |  | 
 |  |  |  |  | CCONc1nc(Cc2c(Cl)cccc2Cl)nc(Nc2ccc(C#N)cc2)n1 |  |  | 7.61
7.92 | 7.21 | 8.62 | 7.06 | 6.30 | N#Cc1ccc(Nc2nc(N)nc(Oc3c(Cl)cc(Cl)cc3Cl)n2)cc1 |  |  | 
8.10 | 7.24 | 8.70 | 6.48 | 6.91 | Cc1cc([N+](=O)[O-])cc(C)c1Oc1nc(N)nc(Nc2ccc(C#N)cc2)n1 |  |  | 
5.76 | 5.23 | 6.21 | 5.23 | 5.14 | N#Cc1ccc(Nc2nc(Cc3c(Cl)cccc3Cl)nc(NN)n2)cc1 |  |  | 
 |  | 7.07 |  |  | CON(C)c1nc(Cc2c(Cl)cccc2Cl)nc(Nc2ccc(C#N)cc2)n1 |  |  | 

pIC50 [1] | pIC50 [2] | pIC50 [3] | pIC50 [4] | pIC50 [5] | SMILES | pIC50 [6] | pIC50 [7] | pIC50 [8]
7.40 | 4.00 | 7.80 | 4.00 | 6.80 | CC(=O)Nc1nc(Cc2c(Cl)cccc2Cl)nc(Nc2ccc(C#N)cc2)n1 |  |  | 
6.14 | 5.79 | 7.03 |  |  | N#Cc1ccc(Nc2nc(S)nc(Cc3c(Cl)cccc3Cl)n2)cc1 |  |  | 
5.29 | 5.20 | 7.04 | 4.11 | < 4.00 | Cc1cc(C)cc(Cc2nc(N)nc(Nc3ccc(C#N)cc3)n2)c1 |  |  | 
 |  | 6.07 |  |  | CCCNc1nc(Cc2c(Cl)cccc2Cl)nc(Nc2ccc(C#N)cc2)n1 |  |  | 
7.09 | 6.55 | 8.51 | 6.42 | 5.34 | N#Cc1ccc(Nc2nc(N)nc(Oc3c(Cl)cccc3Cl)n2)cc1 |  |  | 
6.47 | 5.63 | 7.74 |  |  | CSc1nc(Cc2c(Cl)cccc2Cl)nc(Nc2ccc(C#N)cc2)n1 |  |  | 
4.28 | 4.00 | 5.28 |  |  | N#Cc1ccc(Nc2nc(F)nc(Cc3c(Cl)cccc3Cl)n2)cc1 |  |  | 
6.65 | 5.94 | 7.85 |  |  | N#Cc1ccc(Nc2nc(Cc3c(Cl)cccc3Cl)nc(N=[N+]=[N-])n2)cc1 |  |  | 
6.64 | 5.84 | 7.92 | 5.94 | 5.81 | COc1nc(Cc2c(Cl)cccc2Cl)nc(Nc2ccc(C#N)cc2)n1 |  |  | 
7.89 | 7.42 | 8.62 | 6.97 | 7.59 | N#Cc1ccc(Nc2nc(Cc3c(Cl)cccc3Cl)nc(NO)n2)cc1 |  |  | 
7.80 | 8.21 | 8.85 | 6.66 | 6.79 | N#Cc1ccc(Nc2nc(N)nc(Cc3c(Cl)cc(Cl)cc3Cl)n2)cc1 |  |  | 
6.40 | 5.59 | 6.89 | 5.58 | 5.13 | N#Cc1ccc(Nc2nc(N)nc(Cc3ccccc3Cl)n2)cc1 |  |  | 
5.00 | 5.00 | 5.97 |  |  | N#Cc1ccc(Nc2nc(Cl)nc(Cc3c(Cl)cccc3Cl)n2)cc1 |  |  | 
6.86 | 6.36 | 8.15 | 5.94 | 5.99 | CNc1nc(Cc2c(Cl)cccc2Cl)nc(Nc2ccc(C#N)cc2)n1 |  |  | 
7.20 | 6.54 | 8.52 | 6.38 | 6.58 | N#Cc1ccc(Nc2nc(N)nc(Cc3c(Cl)ccc(Cl)c3Cl)n2)cc1 |  |  | 
6.56 | 6.10 | 7.85 | 5.68 | 5.63 | N#Cc1ccc(Nc2nc(N)nc(Cc3ccc(Cl)cc3Cl)n2)cc1 |  |  | 
7.77 | 7.21 | 8.27 | 6.88 | 6.21 | N#Cc1ccc(Nc2nc(N)nc(Oc3c(Br)cc(Br)cc3Br)n2)cc1 |  |  | 
8.52 | 7.70 | 9.22 | 7.70 | 7.20 | Cc1cc(C)c(Oc2ncnc(Nc3ccc(C#N)cc3)n2)c(C)c1 | < 5.00 |  | 
8.22 | 7.46 | 8.68 | 7.23 | 6.99 | Cc1cc(Br)cc(Cl)c1Oc1nc(N)nc(Nc2ccc(C#N)cc2)n1 |  |  | 
7.40 | 6.68 | 8.57 | 6.21 | 6.45 | CC(=N)Nc1nc(Cc2c(Cl)cccc2Cl)nc(Nc2ccc(C#N)cc2)n1 |  |  | 
7.80 | 6.50 | 8.60 | 6.20 | 6.60 | CN(C)/C=N\c1nc(Cc2c(Cl)cccc2Cl)nc(Nc2ccc(C#N)cc2)n1 |  |  | 
8.22 | 7.72 | 8.54 | 7.19 | 7.44 | Cc1cc(C)c(Sc2nc(N)nc(Nc3ccc(C#N)cc3)n2)c(C)c1 |  |  | 
6.22 | 5.67 | 6.80 |  |  | N#Cc1ccc(Nc2nc(O)nc(Cc3c(Cl)cccc3Cl)n2)cc1 |  |  | 
6.56 | 5.80 | 8.51 | 5.23 | 5.99 | Cc1ccc(C)c(Cc2nc(N)nc(Nc3ccc(C#N)cc3)n2)c1 |  |  | 
7.38 | 6.65 | 8.92 | 5.84 | 6.98 | Cc1cccc(C)c1Cc1nc(N)nc(Nc2ccc(C#N)cc2)n1 |  |  | 

SMILES | pIC50 [1] | pIC50 [2] | pIC50 [3] | pIC50 [4] | pIC50 [5] | pIC50 [6] | pIC50 [7] | pIC50 [8]
Cc1cc(C)c(Cc2nc(N)nc(Nc3ccc(C#N)cc3)n2)c(C)c1 | 8.52 | 7.82 | 9.10 | 7.09 | 7.35 |  |  | 
N#Cc1ccc(Nc2nc(N)nc(Cc3c(Cl)cccc3Cl)n2)cc1 | 7.40 | 6.70 | 8.20 | 6.40 | 6.50 |  |  | 
